Experimental data from US9303027B2 (dated 2016).
Structures can show the parent of a compound that is named as a salt.

Row | SMILES | melting point
1 | COc1cccc([C@@H](CN2CCCC2)NC(=O)C2(c3ccc4oc(=O)[nH]c4c3)CC2)c1 | 92 to 94 °C
2 | O=C(N[C@H](CN1CC[C@H](O)C1)c1ccccc1)C1(c2ccc3oc(=O)[nH]c3c2)CC1 | 142 to 144 °C
3 | Cl.O=C(O)Cn1c(=O)oc2ccc(C3(C(=O)N[C@H](CN4CCCC4)c4ccccc4)CC3)cc21 | 166 to 168 °C
4 | NC(=O)c1cccc([C@@H](CN2CCCC2)NC(=O)C2(c3ccc4oc(=O)[nH]c4c3)CC2)c1 | 139 to 141 °C
5 | CS(=O)(=O)Nc1cccc(C2(C(=O)N[C@H](CN3CCCC3)c3cccc(OCC(=O)O)c3)CC2)c1 | 160 to 162 °C
6 | O=C(N[C@H](CN1CCCC1)c1cccc(OCc2ccccc2)c1)C1(c2ccc3oc(=O)[nH]c3c2)CC1 | 94 to 96 °C
7 | O=C(N[C@H](CN1CCCC1)c1cccc(O)c1)C1(c2ccc3oc(=O)[nH]c3c2)CC1 | 132 to 134 °C
8 | O=C(N[C@H](CN1CCCC1)c1cccc(-c2nn[nH]n2)c1)C1(c2ccc3oc(=O)[nH]c3c2)CC1 | 107 to 109 °C
9 | COc1cccc([C@@H](CN2CC[C@H](O)C2)NC(=O)C2(c3ccc4oc(=O)[nH]c4c3)CC2)c1 | 125 to 127 °C
10 | COC(=O)c1ccc(Cn2c(=O)oc3ccc(C4(C(=O)N[C@H](CN5CCCC5)c5cccc(O)c5)CC4)cc32)cc1 | 119 to 120 °C
11 | COC(=O)c1cccc(Cn2c(=O)oc3ccc(C4(C(=O)N[C@H](CN5CCCC5)c5cccc(O)c5)CC4)cc32)c1 | 112 to 113 °C
12 | O=C(N[C@H](CN1CC[C@H](O)C1)c1cccc([N+](=O)[O-])c1)C1(c2ccc3oc(=O)[nH]c3c2)CC1 | 224 to 226 °C
13 | CN(C(=O)C1(c2ccccc2)CCC1)[C@H](CN1CCCC1)c1ccccc1.Cl | 234 to 235 °C
14 | O=C(N[C@H](CN1CCCC1)c1ccccc1)C1(c2nc3ccccc3s2)CC1 | 97 to 99 °C
15 | CS(=O)(=O)Nc1ccc(C2(C(=O)N[C@H](CN3CCCC3)c3ccccc3)CC2)cc1 | 165 to 168 °C
16 | CS(=O)(=O)Nc1cccc(C2(C(=O)N[C@H](CN3CCCC3)c3ccccc3)CC2)c1 | 146 to 148 °C
17 | CN(C(=O)C1(c2ccccc2)CCCC1)[C@H](CN1CCCC1)c1ccccc1.Cl | 220 to 221 °C
18 | Cl.O=C(N[C@H](CN1CCCC1)c1ccccc1)C1(c2cccc(OCc3ccccc3)c2)CC1 | 118 to 120 °C
19 | CS(=O)(=O)Oc1ccc(C2(C(=O)N[C@H](CN3CC[C@H](O)C3)c3ccccc3)CC2)cc1.Cl | 60 to 62 °C
20 | CN(C(=O)C1(c2ccccc2)CCCCC1)[C@H](CN1CCCC1)c1ccccc1.Cl | 232 to 233 °C
21 | CN(C(=O)C1(c2ccccc2)CC1)[C@H](CN1CCCC1)c1ccccc1.Cl | 216 to 217 °C
22 | O=C(N[C@H](CN1CC[C@H](O)C1)c1ccccc1)C1(c2ccncc2)CC1 | 112 to 114 °C
23 | CN(C(=O)C1(c2cnc3ccccc3c2)CC1)[C@H](CN1CCCC1)c1ccccc1.Cl | 223 to 225 °C

Row | SMILES | melting point
24 | CN(C)S(=O)(=O)c1ccccc1C1(C(=O)N[C@H](CN2CCCC2)c2ccccc2)CC1 | 80 to 81 °C
25 | O=C(N[C@H](CN1CCCC1)c1ccccc1)C1(c2ccc3[nH]c(=O)ccc3c2)CC1 | 171 to 172 °C
26 | CC(C)(C)OC(=O)N[C@H]1CCN(C[C@@H](NC(=O)C2(c3cccc(NS(C)(=O)=O)c3)CC2)c2ccccc2)C1 | 66.3 to 66.5 °C
27 | CN[C@H]1CCN(C[C@@H](NC(=O)C2(c3cccc(NS(C)(=O)=O)c3)CC2)c2ccccc2)C1 | 80.6 to 80.8 °C
28 | Cl.O=C(N[C@H](CN1CCCC1)c1ccccc1)C1(c2ccccc2)CCCCC1 | 204 to 205 °C
29 | CS(=O)(=O)Nc1cccc(C2(C(=O)N[C@H](CN3CCCC3)C3CCCCC3)CC2)c1 | 201 to 202 °C
30 | Cl.O=C(N[C@H](CN1CCCC1)c1ccccc1)C1(c2cccnc2)CC1 | 150 to 152 °C
31 | CS(=O)(=O)Nc1cccc(C2(C(=O)N[C@@H](CN3CCCC3)c3cccc(OCc4ccccc4)c3)CC2)c1 | 70 to 72 °C
32 | CS(=O)(=O)Nc1cccc(C2(C(=O)N[C@@H](CN3CCCC3)c3cccc(O)c3)CC2)c1 | 103 to 105 °C
33 | Cl.O=C(N[C@H](CN1CCCC1)c1ccccc1)C1(c2cnc3ccccc3c2)CC1 | 176 to 178 °C
34 | Cl.O=C(N[C@H](CN1CCCC1)c1ccccc1)C1(c2ccccn2)CC1 | 107.1 to 107.3 °C
35 | O=C(N[C@H](CN1CCCC1)c1ccccc1)C1(c2ccc3c(c2)NS(=O)(=O)C=C3)CC1 | 148 to 150 °C
36 | CS(=O)(=O)Nc1ccc(C2(C(=O)N[C@H](CN3CCCC3)c3ccccc3)CC2)cn1 | 182.2 to 182.4 °C
37 | O=C(N[C@H](CN1CCCC1)c1ccccc1)C1(c2ccc3c(c2)C=CS(=O)(=O)N3)CC1 | 163 to 165 °C
38 | CS(=O)(=O)Oc1cccc([C@@H](CN2CCCC2)NC(=O)C2(c3ccc4oc(=O)[nH]c4c3)CC2)c1 (as salt: trifluoroacetate) | 101 to 103 °C
39 | CS(=O)(=O)Nc1cccc(C2(C(=O)N[C@H](CN3CC[C@H](N)C3)c3ccccc3)CC2)c1 (as salt: trifluoroacetate) | 119.6 to 119.8 °C
40 | N#Cc1cccc([C@@H](CN2CCCC2)NC(=O)C2(c3ccc4oc(=O)[nH]c4c3)CC2)c1 (stereo in doubt) | 106 to 108 °C
41 | Nc1cccc([C@@H](CN2CCCC2)NC(=O)C2(c3ccc4oc(=O)[nH]c4c3)CC2)c1 (stereo in doubt) | 95 to 97 °C
42 | N#Cc1cccc(COc2cccc([C@@H](CN3CCCC3)NC(=O)C3(c4ccc5oc(=O)[nH]c5c4)CC3)c2)c1 (stereo in doubt) | 129 to 130 °C
43 | N#Cc1ccc(COc2cccc([C@@H](CN3CCCC3)NC(=O)C3(c4ccc5oc(=O)[nH]c5c4)CC3)c2)cc1 (stereo in doubt) | 88 to 89 °C
44 | CS(=O)(=O)Nc1cccc([C@@H](CN2CCCC2)NC(=O)C2(c3ccc4oc(=O)[nH]c4c3)CC2)c1 (stereo in doubt) | 114 to 116 °C
45 | CS(=O)(=O)Nc1cc(C2(C(=O)N[C@H](CN3CCCC3)c3ccccc3)CC2)c(F)cc1F (stereo in doubt) | 81.2 to 81.4 °C

The remaining lines, values ahead:

Row | melting point | SMILES
46 | 134 to 136 °C | O=C(O)c1ccc(C2(C(=O)N[C@H](CN3CCCC3)c3ccccc3)CC2)cc1
47 | 115 to 118 °C | O=C1Cc2ccc(C3(C(=O)N[C@H](CN4CCCC4)c4ccccc4)CC3)cc2N1
48 | 80 to 82 °C | Cl.O=C(N[C@H](CN1CCCC1)c1ccccc1)C1(c2cccc(O)c2)CC1
49 | 150 to 152 °C | CS(=O)(=O)c1ccc(C2(C(=O)N[C@H](CN3CCCC3)c3ccccc3)CC2)cc1
50 | 68 to 70 °C | CS(=O)(=O)c1cccc(C2(C(=O)N[C@H](CN3CCCC3)c3ccccc3)CC2)c1.Cl
51 | 280 to 281 °C | CS(=O)(=O)Nc1cc(C2(C(=O)N[C@H](CN3CCCC3)c3ccccc3)CC2)ccc1Cl
52 | 239 to 241 °C | O=C(N[C@H](CN1CCCC1)c1ccccc1)C1(c2ccc3c(c2)NS(=O)(=O)O3)CC1
53 | 138 to 140 °C | O=C(N[C@H](CN1CCCC1)c1ccccc1)C1(c2ccc3c(c2)NS(=O)(=O)C3)CC1
54 | 129 to 130 °C | O=C(N[C@H](CN1CCCC1)c1ccccc1)C1(c2ccc3oncc3c2)CC1
55 | 96 to 98 °C | Cn1c(=O)oc2ccc(C3(C(=O)N[C@H](CN4CCCC4)c4ccccc4)CC3)cc21 (stereo in doubt)
56 | 101.8 to 102.2 °C | CC(=O)c1cc(C2(C(=O)N[C@H](CN3CCCC3)c3ccccc3)CC2)ccc1O (stereo in doubt)
57 | 142 to 144 °C | O=C(N[C@H](CN1CCCC1)c1ccccc1)C1(c2ccc3oc(=O)[nH]c3c2)CC1 (stereo in doubt)
58 | 103 to 105 °C | COc1ccc(C2(C(=O)N[C@H](CN3CCCC3)c3ccccc3)CC2)cc1NS(C)(=O)=O (stereo in doubt)
59 | 158.5 to 158.8 °C | Cc1noc2ccc(C3(C(=O)N[C@H](CN4CCCC4)c4ccccc4)CC3)cc12 (stereo in doubt)
60 | 92 to 94 °C | Cc1cc(C2(C(=O)N[C@H](CN3CCCC3)c3ccccc3)CC2)ccc1NS(C)(=O)=O (stereo in doubt)
61 | 92 to 94 °C | Cc1ccc(C2(C(=O)N[C@H](CN3CCCC3)c3ccccc3)CC2)cc1NS(C)(=O)=O (stereo in doubt)
62 | 175 to 177 °C | O=CNc1cc(C2(C(=O)N[C@H](CN3CCCC3)c3ccccc3)CC2)ccc1O (stereo in doubt)
63 | 67 to 69 °C | CS(=O)(=O)Nc1cc(C2(C(=O)N[C@H](CN3CCCC3)c3ccccc3)CC2)ccc1F (stereo in doubt)
64 | 120 to 121 °C | NC(=O)c1cccc(C2(C(=O)N[C@H](CN3CCCC3)c3ccccc3)CC2)c1 (stereo in doubt)
65 | 158.5 to 158.8 °C | C/C(=N/O)c1cc(C2(C(=O)N[C@H](CN3CCCC3)c3ccccc3)CC2)ccc1O (stereo in doubt)
66 | 207 to 209 °C | O=C(N[C@H](CN1CCCC1)c1ccccc1)C1(c2ccc3[nH]c(=O)[nH]c3c2)CC1 (stereo in doubt)
67 | 78 to 80 °C | Cn1nnc2cc(C3(C(=O)N[C@H](CN4CCCC4)c4ccccc4)CC3)ccc21 (stereo in doubt)
68 | 101 to 103 °C | O=C(N[C@H](CN1CCCC1)c1ccccc1)C1(c2ccc3ccc(=O)[nH]c3c2)CC1 (stereo in doubt)
69 | 124 to 125 °C | O=C(O)COc1cccc(C2(C(=O)N[C@H](CN3CCCC3)c3ccccc3)CC2)c1 (stereo in doubt)
70 | 201 °C | NC(=O)c1ccc(C2(C(=O)N[C@H](CN3CCCC3)c3ccccc3)CC2)cc1 (stereo in doubt)
71 | 127 to 129 °C | O=C(N[C@H](CN1CCCC1)c1ccccc1)C1(c2ccc3[nH]cnc3c2)CC1 (stereo in doubt)
72 | 130 °C | CS(=O)(=O)Nc1cc(C2(C(=O)N[C@H](CN3CCCC3)c3ccccc3)CC2)ccc1F.Cl (stereo in doubt)
73 | 94 to 95 °C | O=C(O)COc1ccc(C2(C(=O)N[C@H](CN3CCCC3)c3ccccc3)CC2)cc1 (stereo in doubt)
74 | 82 to 83 °C | O=C(N[C@H](CN1CCCC1)c1ccccc1)C1(c2ccc3[nH]ncc3c2)CC1 (stereo in doubt)
